Data from ChEMBL document CHEMBL1201862, “PubChem BioAssay data set” (2004).
Activity calls are given as the source filed them.

Columns and labels:
Type in all cases: functional
[1] = target: T1, High affinity choline transporter 1 (Homo sapiens, UniProt Q9GZV3); assay: CHT inhibitors, dose response, cell-based, 5-point CRC, membrane potential dye (AID 504840)
T1 sequence (Q9GZV3 whole entry): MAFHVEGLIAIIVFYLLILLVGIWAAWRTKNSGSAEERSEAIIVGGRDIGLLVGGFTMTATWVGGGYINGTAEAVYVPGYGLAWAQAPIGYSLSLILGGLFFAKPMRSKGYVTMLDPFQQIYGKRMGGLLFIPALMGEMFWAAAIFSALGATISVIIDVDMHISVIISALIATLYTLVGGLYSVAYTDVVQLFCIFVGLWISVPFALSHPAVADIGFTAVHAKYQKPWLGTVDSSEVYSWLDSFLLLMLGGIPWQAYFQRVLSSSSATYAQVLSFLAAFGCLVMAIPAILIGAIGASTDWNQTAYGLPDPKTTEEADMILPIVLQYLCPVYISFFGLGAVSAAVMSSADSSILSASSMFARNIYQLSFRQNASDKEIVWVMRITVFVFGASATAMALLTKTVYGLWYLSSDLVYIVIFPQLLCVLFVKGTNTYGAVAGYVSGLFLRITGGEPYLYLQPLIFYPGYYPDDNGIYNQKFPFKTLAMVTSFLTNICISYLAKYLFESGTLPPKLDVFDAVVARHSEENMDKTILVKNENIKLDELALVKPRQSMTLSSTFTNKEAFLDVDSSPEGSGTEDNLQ

[2] = target: T1, High affinity choline transporter 1; assay: CHT inhibitors, dose response, cell-based, 10-point CRC, membrane potential dye (AID 588401);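 further: membrane potential dye fluorescence of choline-evoked depolarization via CHT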
[3] = target: Glycogen synthase kinase-3 beta (Homo sapiens, UniProt P49841);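 further: value comes from a broad kinome profiling panel, with GSK3B as the panel member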
[4] = A cytotoxicity screen of small molecule inhibitors of the PhoP region in Salmonella typhi identified in the primary screen. [Related pubchem assays: 1850, 1864, 1985 ]
[5] = target: Aurora kinase A (Homo sapiens, UniProt O14965);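 further: value from the Navigating the Kinome kinase panel profiling, panel entry STK6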
[6] = target: T2, C-C chemokine receptor type 6 (Homo sapiens, UniProt P51684); assay: CCR6 receptor antagonists, SAR follow-up, cell-based, luminescent beta-arrestin readout (AID 540334)
T2 sequence (P51684 whole entry): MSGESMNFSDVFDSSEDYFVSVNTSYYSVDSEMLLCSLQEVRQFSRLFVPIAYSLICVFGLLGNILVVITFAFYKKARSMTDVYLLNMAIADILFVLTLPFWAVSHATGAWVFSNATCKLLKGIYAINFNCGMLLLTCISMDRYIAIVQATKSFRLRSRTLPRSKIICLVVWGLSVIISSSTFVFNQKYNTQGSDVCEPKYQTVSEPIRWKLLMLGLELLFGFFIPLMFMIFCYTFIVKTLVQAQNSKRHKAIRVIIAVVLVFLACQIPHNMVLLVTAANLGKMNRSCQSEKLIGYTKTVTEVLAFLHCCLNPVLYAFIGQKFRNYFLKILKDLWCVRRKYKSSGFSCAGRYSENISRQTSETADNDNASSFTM

[7] = target: C-X-C chemokine receptor type 5 (Homo sapiens, UniProt P32302); assay: CXCR5 receptor antagonists, SAR follow-up, selectivity assay for CCR6 antagonist project, cell-based, beta-arrestin, luminescence, CHO-K1 PathHunter (AID 540340)
[8] = target: Apelin receptor (Homo sapiens, UniProt P35414); assay: APJ beta-arrestin recruitment antagonism, SAR follow-up, selectivity assay for CCR6 antagonist project, cell-based, luminescent, enzyme-fragment complementation (AID 588359)
[9] = target: Casein kinase II subunit alpha (Homo sapiens, UniProt P68400)
[10] = target: Serine/threonine-protein kinase pim-1 (Homo sapiens, UniProt P11309)
[11] = target: Serine/threonine-protein kinase BRSK1 (Homo sapiens, UniProt Q8TDC3);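 further: measured within a kinome-wide kinase panel, with the target listed as KIAA1811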
[12] = target: Serine/threonine-protein kinase pim-3 (Homo sapiens, UniProt Q86V86);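 further: value obtained as one member of a broad kinase panel profiling effort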
[13] = target: Tyrosine-protein kinase JAK2 (Homo sapiens, UniProt O60674);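 further: JAK2 tested as one member of a kinase panel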
[14] = target: High affinity nerve growth factor receptor (Homo sapiens, UniProt P04629);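 further: NTRK1 tested as one member of a kinome-wide profiling panel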
[15] = target: Leukocyte tyrosine kinase receptor (Homo sapiens, UniProt P29376); assay: Navigating the Kinome. Panel member name: LTK
[16] = target: Activin receptor type-1 (Homo sapiens, UniProt Q04771); assay: Navigating the Kinome. Panel member name: ACVR1
[17] = target: Platelet-derived growth factor receptor alpha (Homo sapiens, UniProt P16234); assay: Navigating the Kinome. Panel member name: PDGFRA
[18] = target: Dual specificity tyrosine-phosphorylation-regulated kinase 1B (Homo sapiens, UniProt Q9Y463); assay: Navigating the Kinome. Panel member name: DYRK1B
[19] = target: Mitogen-activated protein kinase 13 (Homo sapiens, UniProt O15264)
[20] = target: Leucine-rich repeat serine/threonine-protein kinase 2 (Homo sapiens, UniProt Q5S007);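 further: value from a broad kinome-wide panel profiling study in which LRRK2 was one of the kinases tested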
[21] = target: Tyrosine-protein kinase FRK (Homo sapiens, UniProt P42685);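 further: FRK tested as one member of a kinome panel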
[22] = target: ALK tyrosine kinase receptor (Homo sapiens, UniProt Q9UM73);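 further: ALK tested as one member of a kinase panel screen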
[23] = target: Cyclin-dependent kinase 19 (Homo sapiens, UniProt Q9BWU1); assay: Navigating the Kinome. Panel member name: CDC2L6
[24] = target: Wee1-like protein kinase (Homo sapiens, UniProt P30291); assay: Navigating the Kinome. Panel member name: WEE1
[25] = target: Tyrosine-protein kinase SYK (Homo sapiens, UniProt P43405)
[26] = target: Mitogen-activated protein kinase kinase kinase kinase 4 (Homo sapiens, UniProt O95819)
[27] = target: Serine/threonine-protein kinase D3 (Homo sapiens, UniProt O94806);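 further: determined within a kinase panel screen, with PRKCN as the panel member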
[28] = target: Rho-associated protein kinase 1 (Homo sapiens, UniProt Q13464);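 further: measured within a broad kinome-wide panel profiling many kinases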
[29] = target: Serine/threonine-protein kinase D2 (Homo sapiens, UniProt Q9BZL6);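 further: measured against PRKD2 as one member of a kinome-wide kinase profiling panel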
Chain of Serine/threonine-protein kinase D2 (Q9BZL6 whole entry): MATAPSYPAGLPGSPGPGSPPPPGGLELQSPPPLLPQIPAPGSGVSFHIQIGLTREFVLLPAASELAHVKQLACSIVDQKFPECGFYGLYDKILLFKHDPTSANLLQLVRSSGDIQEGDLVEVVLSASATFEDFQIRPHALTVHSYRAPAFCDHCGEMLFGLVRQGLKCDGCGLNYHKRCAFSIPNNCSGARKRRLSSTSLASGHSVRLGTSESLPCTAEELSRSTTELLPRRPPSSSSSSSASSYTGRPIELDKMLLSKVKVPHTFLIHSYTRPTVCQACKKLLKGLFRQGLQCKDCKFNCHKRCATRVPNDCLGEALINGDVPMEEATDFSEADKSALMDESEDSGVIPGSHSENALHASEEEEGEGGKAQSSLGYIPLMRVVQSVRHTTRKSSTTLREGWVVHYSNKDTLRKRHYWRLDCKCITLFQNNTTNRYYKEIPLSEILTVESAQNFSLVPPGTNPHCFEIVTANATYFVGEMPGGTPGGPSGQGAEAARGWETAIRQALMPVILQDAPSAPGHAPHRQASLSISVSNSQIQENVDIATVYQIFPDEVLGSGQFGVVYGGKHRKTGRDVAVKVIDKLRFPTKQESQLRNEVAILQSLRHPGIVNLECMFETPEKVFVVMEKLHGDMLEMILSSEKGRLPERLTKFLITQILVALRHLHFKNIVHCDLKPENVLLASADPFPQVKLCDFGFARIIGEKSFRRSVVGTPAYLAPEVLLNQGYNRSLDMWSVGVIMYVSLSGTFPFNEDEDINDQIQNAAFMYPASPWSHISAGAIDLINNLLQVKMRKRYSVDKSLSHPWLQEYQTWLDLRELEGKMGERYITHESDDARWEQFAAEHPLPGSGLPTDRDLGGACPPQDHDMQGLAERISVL

Chain of Tyrosine-protein kinase JAK2 (O60674 whole entry): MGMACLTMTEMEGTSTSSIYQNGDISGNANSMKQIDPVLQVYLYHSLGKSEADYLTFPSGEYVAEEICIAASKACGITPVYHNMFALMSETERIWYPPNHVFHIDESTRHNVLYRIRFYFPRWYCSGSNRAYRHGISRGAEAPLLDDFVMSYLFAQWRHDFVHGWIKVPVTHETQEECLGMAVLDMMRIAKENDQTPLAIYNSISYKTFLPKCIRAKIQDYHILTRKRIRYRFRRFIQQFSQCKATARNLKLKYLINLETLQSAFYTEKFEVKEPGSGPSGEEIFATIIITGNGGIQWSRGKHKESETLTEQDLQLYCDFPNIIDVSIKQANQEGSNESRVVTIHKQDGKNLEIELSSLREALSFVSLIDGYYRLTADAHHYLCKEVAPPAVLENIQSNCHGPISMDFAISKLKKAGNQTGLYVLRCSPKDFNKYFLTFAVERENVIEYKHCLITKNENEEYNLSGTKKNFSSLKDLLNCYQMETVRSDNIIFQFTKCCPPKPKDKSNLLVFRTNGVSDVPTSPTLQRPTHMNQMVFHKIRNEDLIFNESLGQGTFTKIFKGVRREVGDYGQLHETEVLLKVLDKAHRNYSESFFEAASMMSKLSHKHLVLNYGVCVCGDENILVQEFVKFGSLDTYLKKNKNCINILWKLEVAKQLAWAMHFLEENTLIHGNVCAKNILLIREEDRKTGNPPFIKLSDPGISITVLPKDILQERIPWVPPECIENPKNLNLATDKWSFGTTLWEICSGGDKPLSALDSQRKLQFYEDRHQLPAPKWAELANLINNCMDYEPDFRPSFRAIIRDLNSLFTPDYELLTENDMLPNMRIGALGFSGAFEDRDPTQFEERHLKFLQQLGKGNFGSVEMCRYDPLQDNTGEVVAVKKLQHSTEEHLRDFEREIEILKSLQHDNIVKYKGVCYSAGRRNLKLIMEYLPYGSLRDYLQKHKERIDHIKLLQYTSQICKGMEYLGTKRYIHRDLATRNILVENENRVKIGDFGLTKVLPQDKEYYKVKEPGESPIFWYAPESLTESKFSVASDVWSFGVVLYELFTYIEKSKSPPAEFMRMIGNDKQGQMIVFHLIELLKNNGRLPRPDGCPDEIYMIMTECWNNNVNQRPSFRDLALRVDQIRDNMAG
Chain of ALK tyrosine kinase receptor (Q9UM73 whole entry): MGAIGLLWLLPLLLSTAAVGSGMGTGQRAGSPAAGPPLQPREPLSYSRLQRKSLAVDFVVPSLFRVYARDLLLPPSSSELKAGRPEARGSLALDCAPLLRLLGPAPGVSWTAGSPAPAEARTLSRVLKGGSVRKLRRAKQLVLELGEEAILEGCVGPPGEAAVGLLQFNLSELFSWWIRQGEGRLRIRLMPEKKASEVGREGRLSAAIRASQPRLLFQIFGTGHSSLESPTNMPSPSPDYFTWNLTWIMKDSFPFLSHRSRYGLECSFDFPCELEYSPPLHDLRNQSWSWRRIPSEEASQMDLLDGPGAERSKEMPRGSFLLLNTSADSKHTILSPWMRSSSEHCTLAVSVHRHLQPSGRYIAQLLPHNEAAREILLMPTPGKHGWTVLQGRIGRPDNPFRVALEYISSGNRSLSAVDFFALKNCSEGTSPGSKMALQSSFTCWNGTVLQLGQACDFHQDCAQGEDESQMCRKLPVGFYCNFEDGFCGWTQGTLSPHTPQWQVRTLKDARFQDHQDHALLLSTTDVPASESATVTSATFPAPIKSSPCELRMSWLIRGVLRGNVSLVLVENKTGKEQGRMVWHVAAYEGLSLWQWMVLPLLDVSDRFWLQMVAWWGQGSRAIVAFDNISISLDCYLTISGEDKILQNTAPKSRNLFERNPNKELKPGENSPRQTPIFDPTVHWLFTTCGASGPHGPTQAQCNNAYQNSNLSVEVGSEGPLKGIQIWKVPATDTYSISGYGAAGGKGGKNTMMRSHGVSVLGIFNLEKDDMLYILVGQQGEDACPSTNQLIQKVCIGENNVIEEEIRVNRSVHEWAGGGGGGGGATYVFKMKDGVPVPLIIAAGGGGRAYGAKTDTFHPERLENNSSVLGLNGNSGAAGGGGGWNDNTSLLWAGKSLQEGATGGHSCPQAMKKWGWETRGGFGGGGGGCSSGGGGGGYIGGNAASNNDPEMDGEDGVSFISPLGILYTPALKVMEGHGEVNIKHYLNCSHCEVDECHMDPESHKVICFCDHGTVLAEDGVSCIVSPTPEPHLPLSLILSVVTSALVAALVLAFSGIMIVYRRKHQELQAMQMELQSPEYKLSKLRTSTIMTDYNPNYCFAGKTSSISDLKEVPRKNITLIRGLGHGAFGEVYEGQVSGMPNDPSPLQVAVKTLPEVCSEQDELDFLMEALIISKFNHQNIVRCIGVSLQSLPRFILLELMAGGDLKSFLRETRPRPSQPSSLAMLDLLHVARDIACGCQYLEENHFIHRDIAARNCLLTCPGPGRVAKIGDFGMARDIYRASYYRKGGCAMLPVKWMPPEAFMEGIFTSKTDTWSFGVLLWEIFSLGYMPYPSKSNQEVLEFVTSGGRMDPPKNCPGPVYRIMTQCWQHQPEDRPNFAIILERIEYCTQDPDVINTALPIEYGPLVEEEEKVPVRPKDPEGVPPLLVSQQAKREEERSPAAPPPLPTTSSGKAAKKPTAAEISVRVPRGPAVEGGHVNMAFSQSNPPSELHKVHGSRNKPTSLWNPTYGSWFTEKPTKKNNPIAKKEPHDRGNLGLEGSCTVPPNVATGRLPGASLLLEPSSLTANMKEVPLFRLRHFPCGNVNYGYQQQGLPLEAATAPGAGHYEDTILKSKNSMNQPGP
Chain of Apelin receptor (P35414 whole entry, the tested form may be a part): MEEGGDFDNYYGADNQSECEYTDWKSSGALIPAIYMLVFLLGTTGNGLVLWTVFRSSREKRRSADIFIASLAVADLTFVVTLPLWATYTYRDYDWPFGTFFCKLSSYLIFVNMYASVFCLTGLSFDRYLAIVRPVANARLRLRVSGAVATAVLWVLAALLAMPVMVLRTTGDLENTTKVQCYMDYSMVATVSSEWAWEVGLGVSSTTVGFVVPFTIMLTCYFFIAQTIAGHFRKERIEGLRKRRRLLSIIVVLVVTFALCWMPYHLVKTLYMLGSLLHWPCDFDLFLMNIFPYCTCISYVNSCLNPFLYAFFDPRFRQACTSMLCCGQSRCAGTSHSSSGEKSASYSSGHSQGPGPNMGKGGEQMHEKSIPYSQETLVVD
Chain of Platelet-derived growth factor receptor alpha (P16234 whole entry): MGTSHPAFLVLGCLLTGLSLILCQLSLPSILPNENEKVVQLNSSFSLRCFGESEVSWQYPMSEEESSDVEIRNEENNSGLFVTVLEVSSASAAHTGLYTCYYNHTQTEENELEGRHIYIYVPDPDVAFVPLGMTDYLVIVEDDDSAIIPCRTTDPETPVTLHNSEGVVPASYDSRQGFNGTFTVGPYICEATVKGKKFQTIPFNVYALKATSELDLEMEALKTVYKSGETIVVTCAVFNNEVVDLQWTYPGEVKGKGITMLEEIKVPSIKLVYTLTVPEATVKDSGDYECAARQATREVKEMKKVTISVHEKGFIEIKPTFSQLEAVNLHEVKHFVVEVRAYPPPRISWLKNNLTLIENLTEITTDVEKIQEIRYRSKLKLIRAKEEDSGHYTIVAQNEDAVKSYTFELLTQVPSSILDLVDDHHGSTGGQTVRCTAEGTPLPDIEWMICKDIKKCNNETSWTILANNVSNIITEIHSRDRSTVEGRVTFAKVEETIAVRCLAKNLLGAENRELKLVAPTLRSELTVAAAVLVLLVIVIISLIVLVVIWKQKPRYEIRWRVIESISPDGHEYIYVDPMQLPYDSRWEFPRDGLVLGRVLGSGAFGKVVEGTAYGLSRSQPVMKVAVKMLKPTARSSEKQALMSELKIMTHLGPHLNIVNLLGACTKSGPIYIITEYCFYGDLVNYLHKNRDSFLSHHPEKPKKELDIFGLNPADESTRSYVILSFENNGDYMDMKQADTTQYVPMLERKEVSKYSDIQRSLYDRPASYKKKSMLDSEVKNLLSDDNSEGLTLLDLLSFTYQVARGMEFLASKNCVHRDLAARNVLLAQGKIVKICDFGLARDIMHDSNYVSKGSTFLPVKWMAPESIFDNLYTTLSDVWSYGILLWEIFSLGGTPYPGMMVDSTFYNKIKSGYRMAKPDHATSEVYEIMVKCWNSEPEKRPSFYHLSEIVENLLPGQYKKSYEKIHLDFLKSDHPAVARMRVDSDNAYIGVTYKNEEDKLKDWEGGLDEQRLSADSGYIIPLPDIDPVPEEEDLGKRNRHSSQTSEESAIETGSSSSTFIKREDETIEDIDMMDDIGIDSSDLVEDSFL

For Cc1cc(C)c(C(=O)Nc2ccc(S(=O)(=O)Nc3ccccn3)cc2)c(C)c1, the IC50 [1] was 4070 nM (active) and the IC50 [2] was 2700 nM (active).

For O=C(Nc1ccccc1)Nc1nccs1, the Ki [3] was 10000 nM (active), the EC50 [4] was > 50000 nM (active) and the Ki [5] was 15800 nM (active).

With Cc1cccc2c1N(CCCOc1ccc(C(C)(C)C)cc1)C(=O)C2=O the IC50 [6] was > 66600 nM (inactive), the IC50 [7] was 24300 nM (inactive) and the IC50 [8] was > 66600 nM (inactive).

With O=C1ON=C(c2ccc(Br)cc2)C1=Cc1ccc2c(c1)OCO2 the Ki [9] was 1580 nM (active), the Ki [10] was 2000 nM (active) and the Ki [11] was 10000 nM (active). The Ki [12] was 7940 nM (active).

In the case of COc1cccc(C(C)NC(=O)c2ccc(-c3ccncc3)cc2)c1 (stereo unspecified), the Ki [13] is reported as > 2510 nM (inactive), the Ki [14] is reported as > 2510 nM (inactive) and the Ki [15] is reported as > 2510 nM (inactive). For the same compound, the Ki [16] was > 3980 nM (inactive), the Ki [17] was > 2510 nM (inactive) and the Ki [18] was > 2510 nM (inactive). For the same compound, the Ki [19] was > 7940 nM (inactive), the Ki [20] was > 2510 nM (inactive) and the Ki [21] was > 2510 nM (inactive).

With Cc1ccc(NC(=O)Nc2ccc(-c3csc4c(-c5cnn(CC(=O)N(C)C)c5)cnc(N)c34)cc2)cc1 the Ki [22] was 158 nM (active) and the Ki [23] was > 100000 nM (inactive).

For Cc1cnc(Nc2ccc(N3CCN(C)CC3)cc2)nc1Nc1cccc(S(=O)(=O)NC(C)(C)C)c1, the Ki [22] was 501 nM (active) and the Ki [24] was 126 nM (active).

In the case of CCN(CC)CCOc1ccc(Nc2ncc3cc(-c4c(Cl)cccc4Cl)c(=O)n(C)c3n2)cc1 [PD-0166285], the Ki [13] is reported as 39.8 nM (active), the Ki [25] is reported as 79.4 nM (active) and the Ki [26] is reported as 79.4 nM (active).

In the case of NC(=O)c1ccc(N(C(N)=O)c2c(F)cccc2F)nc1-c1ccc(F)cc1F [VX-702], the Ki [27] is reported as 2510 nM (active), the Ki [28] is reported as 2510 nM (active) and the Ki [29] is reported as 5010 nM (active).
